The IC50 is the concentration that gives 50% inhibition.

Some results are limits rather than exact numbers.

One assay relates to KM12 cells. Put plainly: Cell viability assay (CellTiter-Glo) in KM12 cells. It counts as cell-based. The settings on record: Homo sapiens, 72 h; Table 2; KM12 cell viability, CellTiter-Glo, 3 days; read-out: IC50. On the technique in general: Cellular ATP, detected with luciferase, serves as a proxy for viable cell number.
As for `Cc1ncsc1-c1ccc(CNC(=O)[C@@H]2C[C@@H](O)CN2C(=O)[C@@H](NC(=O)CCCC(=O)N2CCN(c3ccc(C(=O)Nc4n[nH]c5ccc(Cc6cc(F)cc(F)c6)cc45)c(NC4CCOCC4)c3)CC2)C(C)(C)C)cc1` [CPD-036, (2S,4R)-1-((S)-2-(5-(4-(4-((5-(3,5-Difluorobenzyl)-1H-indazol-3-yl)carbamoyl)-3-((tetrahydro-2H-pyran-4-yl)amino)phenyl)piperazin-1-yl)-5-oxopentanamido)-3,3-dimethylbutanoyl)-4-hydroxy-N-(4-(4-methylthiazol-5-yl)benzyl)pyrrolidine-2-carboxamide], the half-maximal inhibitory concentration (IC50) was 300 nM.

Regarding `O=C1CCC(N2C(=O)c3cccc(NCCCCC(=O)N4CCN(c5ccc(C(=O)Nc6n[nH]c7ccc(Cc8cc(F)cc(F)c8)cc67)c(NC6CCOCC6)c5)CC4)c3C2=O)C(=O)N1` (stereo not drawn) [CPD-050, N-(5-(3,5-difluorobenzyl)-1H-indazol-3-yl)-4-(4-(5-((2-(2,6-dioxopiperidin-3-yl)-1,3-dioxoisoindolin-4-yl)amino)pentanoyl)piperazin-1-yl)-2-((tetrahydro-2H-pyran-4-yl)amino)benzamide], the IC50 is 28 nM.

Turning to `Cc1ncsc1-c1ccc(CNC(=O)[C@@H]2C[C@@H](O)CN2C(=O)[C@@H](NC(=O)CCOCCOCCC(=O)N2CCN(c3ccc(C(=O)Nc4n[nH]c5ccc(Cc6cc(F)cc(F)c6)cc45)c(NC4CCOCC4)c3)CC2)C(C)(C)C)cc1` [CPD-038, (2S,4R)-1-((S)-2-(3-(2-(3-(4-(4-((5-(3,5-Difluorobenzyl)-1H-indazol-3-yl)carbamoyl)-3-((tetrahydro-2H-pyran-4-yl)amino)phenyl)piperazin-1-yl)-3-oxopropoxy)ethoxy)propanamido)-3,3-dimethylbutanoyl)-4-hydroxy-N-(4-(4-methylthiazol-5-yl)benzyl)pyrrolidine-2-carboxamide], the IC50 was 359 nM.

In the case of `Cc1ncsc1-c1ccc(CNC(=O)[C@@H]2C[C@@H](O)CN2C(=O)[C@@H](NC(=O)CCOCCOCCOCCOCCC(=O)N2CCN(c3ccc(C(=O)Nc4n[nH]c5ccc(Cc6cc(F)cc(F)c6)cc45)c(NC4CCOCC4)c3)CC2)C(C)(C)C)cc1` [CPD-041, (2S,4R)-1-((S)-2-(tert-butyl)-19-(4-(4-((5-(3,5-Difluorobenzyl)-1H-indazol-3-yl)carbamoyl)-3-((tetrahydro-2H-pyran-4-yl)amino)phenyl)piperazin-1-yl)-4,19-dioxo-7,10,13,16-tetraoxa-3-azanonadecanoyl)-4-hydroxy-N-(4-(4-methylthiazol-5-yl)benzyl)pyrrolidine-2-carboxamide], the IC50 was determined as 400 nM.

With `Cc1ncsc1-c1ccc(CNC(=O)[C@@H]2C[C@@H](O)CN2C(=O)[C@@H](NC(=O)CCCCCCCCCC(=O)N2CCN(c3ccc(C(=O)Nc4n[nH]c5ccc(Cc6cc(F)cc(F)c6)cc45)c(NC4CCOCC4)c3)CC2)C(C)(C)C)cc1` [CPD-035, (2S,4R)-1-((S)-2-(11-(4-(4-((5-(3,5-Difluorobenzyl)-1H-indazol-3-yl)carbamoyl)-3-((tetrahydro-2H-pyran-4-yl)amino)phenyl)piperazin-1-yl)-11-oxoundecanamido)-3,3-dimethylbutanoyl)-4-hydroxy-N-(4-(4-methylthiazol-5-yl)benzyl)pyrrolidine-2-carboxamide], the IC50 came out at 300 nM.

Take `Cc1ncsc1-c1ccc(CNC(=O)[C@@H]2C[C@@H](O)CN2C(=O)[C@@H](NC(=O)COCCOCC(=O)N2CCN(c3ccc(C(=O)Nc4n[nH]c5ccc(Cc6cc(F)cc(F)c6)cc45)c(NC4CCOCC4)c3)CC2)C(C)(C)C)cc1` [CPD-042, (2S,4R)-1-((S)-2-(2-(2-(2-(4-(4-((5-(3,5-Difluorobenzyl)-1H-indazol-3-yl)carbamoyl)-3-((tetrahydro-2H-pyran-4-yl)amino)phenyl)piperazin-1-yl)-2-oxoethoxy)ethoxy)acetamido)-3,3-dimethylbutanoyl)-4-hydroxy-N-(4-(4-methylthiazol-5-yl)benzyl)pyrrolidine-2-carboxamide]: the IC50 was over 1000 nM.

Turning to `Cc1ncsc1-c1ccc(CNC(=O)[C@@H]2C[C@@H](O)CN2C(=O)[C@@H](NC(=O)CCC(=O)N2CCN(c3ccc(C(=O)Nc4n[nH]c5ccc(Cc6cc(F)cc(F)c6)cc45)c(NC4CCOCC4)c3)CC2)C(C)(C)C)cc1` [CPD-046, (2S,4R)-1-((S)-2-(4-(4-(4-((5-(3,5-Difluorobenzyl)-1H-indazol-3-yl)carbamoyl)-3-((tetrahydro-2H-pyran-4-yl)amino)phenyl)piperazin-1-yl)-4-oxobutanamido)-3,3-dimethylbutanoyl)-4-hydroxy-N-(4-(4-methylthiazol-5-yl)benzyl)pyrrolidine-2-carboxamide], the IC50 stood at 700 nM.

Still in this assay, the particulars now being: Homo sapiens, 72 h; Table 3; KM12 cell viability, CellTiter-Glo, 3 days; read-out: IC50.
For the compound `O=C(CN1CCN(c2ccc(C(=O)Nc3n[nH]c4ccc(Cc5cc(F)cc(F)c5)cc34)c(NC3CCOCC3)c2)CC1)NCCCCCNc1cccc2c1C(=O)N(C1CCC(=O)NC1=O)C2=O` (stereo not drawn) [TR-149, N-(5-(3,5-Difluorobenzyl)-1H-indazol-3-yl)-4-(4-(2-((5-((2-(2,6-dioxopiperidin-3-yl)-1,3-dioxoisoindolin-4-yl)amino)pentyl)amino)-2-oxoethyl)piperazin-1-yl)-2-((tetrahydro-2H-pyran-4-yl)amino)benzamide], the IC50 is 4.6 nM.

Turning to `O=C1CCC(N2C(=O)c3ccc(NCCOCCOCCOCCOCCOCCC(=O)N4CCN(c5cccc(-c6cnc7ccc(N8CCC[C@@H]8c8cccc(F)c8)nn67)n5)CC4)cc3C2=O)C(=O)N1` (stereo partly drawn) [TR-116, 2-(2,6-Dioxopiperidin-3-yl)-5-((18-(4-(6-(6-((R)-2-(3-fluorophenyl)pyrrolidin-1-yl)imidazo[1,2-b]pyridazin-3-yl)pyridin-2-yl)piperazin-1-yl)-18-oxo-3,6,9,12,15-pentaoxaoctadecyl)amino)isoindoline-1,3-dione], the IC50 was found to be 2 nM.

`O=C(CN1CCN(c2ccc(C(=O)Nc3n[nH]c4ccc(Cc5cc(F)cc(F)c5)cc34)c(NC3CCOCC3)c2)CC1)NCCOCCNc1cccc2c1C(=O)N(C1CCC(=O)NC1=O)C2=O` (stereo not drawn) [TR-151, N-(5-(3,5-Difluorobenzyl)-1H-indazol-3-yl)-4-(4-(2-((2-(2-((2-(2,6-dioxopiperidin-3-yl)-1,3-dioxoisoindolin-4-yl)amino)ethoxy)ethyl)amino)-2-oxoethyl)piperazin-1-yl)-2-((tetrahydro-2H-pyran-4-yl)amino)benzamide]: the IC50 came to 3.1 nM.

Regarding `O=C1CCC(N2C(=O)c3ccc(NCCOCCOCCC(=O)N4CCN(c5cccc(-c6cnc7ccc(N8CCC[C@@H]8c8cccc(F)c8)nn67)n5)CC4)cc3C2=O)C(=O)N1` (stereo partly drawn) [TR-113, 2-(2,6-Dioxopiperidin-3-yl)-5-((2-(2-(3-(4-(6-(6-((R)-2-(3-fluorophenyl)pyrrolidin-1-yl)imidazo[1,2-b]pyridazin-3-yl)pyridin-2-yl)piperazin-1-yl)-3-oxopropoxy)ethoxy)ethyl)amino)isoindoline-1,3-dione], the IC50 stood at 1.3 nM.

`O=C1CCC(N2C(=O)c3ccc(CCN4CCN(c5cccc(-c6cnc7ccc(N8CCC[C@@H]8c8cccc(F)c8)nn67)n5)CC4)cc3C2=O)C(=O)N1` (stereo partly drawn) [TR-204, 2-(2,6-dioxopiperidin-3-yl)-5-(2-(4-(6-(6-((R)-2-(3-fluorophenyl)pyrrolidin-1-yl)imidazo[1,2-b]pyridazin-3-yl)pyridin-2-yl)piperazin-1-yl)ethyl)isoindoline-1,3-dione]: the IC50 amounted to 10.6 nM.

Consider `O=C1CCC(N2C(=O)c3ccc(C#CCN4CCN(c5cccc(-c6cnc7ccc(N8CCC[C@@H]8c8cccc(F)c8)nn67)n5)CC4)cc3C2=O)C(=O)N1` (stereo partly drawn) [TR-183, 2-(2,6-Dioxopiperidin-3-yl)-5-(3-(4-(6-(6-((R)-2-(3-fluorophenyl)pyrrolidin-1-yl)imidazo[1,2-b]pyridazin-3-yl)pyridin-2-yl)piperazin-1-yl)prop-1-yn-1-yl)isoindoline-1,3-dione], for which the IC50 was 129 nM.

Turning to `O=C1CCC(N2C(=O)c3ccc(NCCCCCCCC(=O)N4CCN(c5ccc(C(=O)Nc6n[nH]c7ccc(Cc8cc(F)cc(F)c8)cc67)c(NC6CCOCC6)c5)CC4)cc3C2=O)C(=O)N1` (stereo not drawn) [TR-136, N-(5-(3,5-Difluorobenzyl)-1H-indazol-3-yl)-4-(4-(8-((2-(2,6-dioxopiperidin-3-yl)-1,3-dioxoisoindolin-5-yl)amino)octanoyl)piperazin-1-yl)-2-((tetrahydro-2H-pyran-4-yl)amino)benzamide], the IC50 turned out to be 23.6 nM.

Consider `O=C1CCC(N2C(=O)c3ccc(NCCCC(=O)N4CCN(c5cccc(-c6cnc7ccc(N8CCC[C@@H]8c8cccc(F)c8)nn67)n5)CC4)cc3C2=O)C(=O)N1` (stereo partly drawn) [TR-168, 2-(2,6-Dioxopiperidin-3-yl)-5-((4-(4-(6-(6-((R)-2-(3-fluorophenyl)pyrrolidin-1-yl)imidazo[1,2-b]pyridazin-3-yl)pyridin-2-yl)piperazin-1-yl)-4-oxobutyl)amino)isoindoline-1,3-dione], for which the IC50 worked out at 2.9 nM.

The same assay, now with this note: Homo sapiens, 72 h; Table 4; KM12 cell viability, CellTiter-Glo, 3 days; read-out: IC50.
Regarding `Cn1c(=O)n(C2CCC(=O)NC2=O)c2cccc(NCCN3CCN(c4cccc(-c5cnc6ccc(N7CCC[C@@H]7c7cccc(F)c7)nn56)n4)CC3)c21` (stereo partly drawn) [TR-216, 3-[4-[2-[4-[6-[6-[(2R)-2-(3-Fluorophenyl)pyrrolidin-1-yl]imidazo[1,2-b]pyridazin-3-yl]-2-pyridyl]piperazin-1-yl]ethylamino]-3-methyl-2-oxo-benzimidazol-1-yl]piperidine-2,6-dione], the 50% inhibitory concentration (IC50) amounted to 3.6 nM.

Take `Cn1c(=O)n(C2CCC(=O)NC2=O)c2ccc(OCCN3CCN(c4cccc(-c5cnc6ccc(N7CCC[C@@H]7c7cccc(F)c7)nn56)n4)CC3)cc21` (stereo partly drawn) [TR-246, 3-(5-(2-(4-(6-(6-((R)-2-(3-fluorophenyl)pyrrolidin-1-yl)imidazo[1,2-b]pyridazin-3-yl)pyridin-2-yl)piperazin-1-yl)ethoxy)-3-methyl-2-oxo-2,3-dihydro-1H-benzo[d]imidazol-1-yl)piperidine-2,6-dione]: the IC50 was determined as 101 nM.

For the compound `COc1ccc(CN(CCN2CCN(c3cccc(-c4cnc5ccc(N6CCC[C@@H]6c6cccc(F)c6)nn45)n3)CC2)c2ccc3c(c2)C(=O)N(C2CCC(=O)NC2=O)C3=O)cc1` (stereo partly drawn) [TR-214, 2-(2,6-Dioxo-3-piperidyl)-5-(2-(4-(6-(6-((2R)-2-(3-fluorophenyl)pyrrolidin-1-yl)imidazo[1,2-b]pyridazin-3-yl)-2-pyridyl)piperazin-1-yl)ethyl-((4-methoxyphenyl)methyl)amino)isoindoline-1,3-dione], the half-inhibitory concentration (IC50) worked out at 2.7 nM.

Values taken from US12065442B2, “Tropomyosin receptor kinase (TRK) degradation compounds and methods of use” (Cullgen (Shanghai), Inc., priority 2018, dated 2024).
